Data reported in a compilation of properties of binary mixtures (doi:10.1016/j.molliq.2017.09.038).

Experiment: xn = mol fraction of the nth substance listed
Conditions: 101 kPa

CCCCCCCCCC[n+]1ccn(C)c1.[Br-] + O
viscosity [mPa·s]
Conditions | 288 K | 293 K | 298 K | 303 K | 308 K
x1 = 0.0146 | 3.39 | 3.21 | 2.77 | – | 1.94
x1 = 0.0194 | 4.6 | 4.1 | 3.72 | – | 2.83
x1 = 0.0248 | 6.77 | 5.99 | 5.72 | 5.12 | 4.22
x1 = 0.031 | 9.19 | 8.61 | 8.09 | 7.92 | 7.3
